Molecular target: T1, EGFR (Homo sapiens, UniProt P00533)
T1 construct: Add 7 ug A431 cell lysate per well (EGFR source); endogenous in cells; host or cells: A431
Experiment: EGFR ELISA assay (in vitro kinase activity, EGFR captured from A431 cell lysate)
Type: biochemical
Design: concentration or dose not given beside the values
Summary of the method: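 EGFR from A431 lysate was captured on anti-EGFR antibody-coated plates and preincubated with compounds for 30 min. Autophosphorylation ran 5 min with 3 uM ATP and 5 mM MnCl2 (final), stopped with 20 mM EDTA. Phosphotyrosine was detected by anti-pTyr ELISA with ABTS/H2O2, read at 410 nm.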

T1 sequence (P00533 25-1210): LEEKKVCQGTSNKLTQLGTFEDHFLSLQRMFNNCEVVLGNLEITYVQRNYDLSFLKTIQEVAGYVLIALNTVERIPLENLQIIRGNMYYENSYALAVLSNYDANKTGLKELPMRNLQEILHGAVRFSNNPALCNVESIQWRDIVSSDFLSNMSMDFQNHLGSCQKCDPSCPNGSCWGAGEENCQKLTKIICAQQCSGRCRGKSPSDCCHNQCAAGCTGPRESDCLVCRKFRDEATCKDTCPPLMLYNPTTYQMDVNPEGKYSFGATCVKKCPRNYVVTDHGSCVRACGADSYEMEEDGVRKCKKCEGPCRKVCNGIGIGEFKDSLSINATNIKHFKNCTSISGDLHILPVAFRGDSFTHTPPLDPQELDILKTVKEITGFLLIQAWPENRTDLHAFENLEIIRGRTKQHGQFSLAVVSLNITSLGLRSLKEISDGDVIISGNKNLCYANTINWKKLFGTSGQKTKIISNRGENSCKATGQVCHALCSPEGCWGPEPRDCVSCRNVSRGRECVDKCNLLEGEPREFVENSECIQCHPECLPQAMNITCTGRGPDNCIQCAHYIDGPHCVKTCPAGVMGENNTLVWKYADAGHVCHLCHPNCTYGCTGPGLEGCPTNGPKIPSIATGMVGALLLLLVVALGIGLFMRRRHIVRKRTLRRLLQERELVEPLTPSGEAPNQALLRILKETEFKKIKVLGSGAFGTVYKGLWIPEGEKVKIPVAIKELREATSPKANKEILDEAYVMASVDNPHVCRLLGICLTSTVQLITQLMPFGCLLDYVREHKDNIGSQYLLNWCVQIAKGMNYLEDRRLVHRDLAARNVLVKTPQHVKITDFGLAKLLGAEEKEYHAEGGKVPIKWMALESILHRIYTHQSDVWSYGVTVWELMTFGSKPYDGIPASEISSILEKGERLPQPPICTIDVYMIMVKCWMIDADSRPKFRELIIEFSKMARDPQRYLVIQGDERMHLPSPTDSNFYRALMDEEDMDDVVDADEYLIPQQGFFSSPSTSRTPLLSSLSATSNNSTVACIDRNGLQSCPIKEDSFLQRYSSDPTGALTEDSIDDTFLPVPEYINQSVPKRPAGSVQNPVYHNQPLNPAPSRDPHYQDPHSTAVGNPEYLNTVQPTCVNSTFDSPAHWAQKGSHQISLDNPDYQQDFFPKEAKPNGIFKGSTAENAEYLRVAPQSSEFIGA

O=C1Nc2ccc(S(=O)(=O)Nc3ccc(C(F)(F)F)cc3)cc2C1=Cc1cccnc1 [10729/E08]
Biochem EGFR %Inhibition: 40.1%

— patent publication EP1247803A2, “Indolinone compounds suitable for modulation of protein kinases” (Sugen, Inc., priority 1996, dated 1998)
